Assay [1] has as its target human LAT1 (Homo sapiens, UniProt Q01650). Briefly: [14C]L-leucine uptake inhibition test using human-LAT1 stably expressing HEK293 cell line. Type of assay: cell-based. Details: having full-length cDNA of human LAT1 or LAT2 inserted under a promoter of CMV; expressed in transfected cells; key to Assay Data: degree of [14C]L-leucine uptake inhibition compared with BCH: a test compound having a higher inhibitory effect than BCH is denoted by A; a test compound having the same inhibitory effect as BCH is denoted by B; a test compound having a lower inhibitory effect than BCH is denoted by C. The note with it: for Assay Data: degree of [14C]L-leucine uptake inhibition compared with BCH: compound (racemic form) and BCH at 0.1, 1.0, 10 μM, 1 μM [14C]L-leucine, 1 minute, Na+-free HBSS. An excerpt: HEK293 cells stably expressing human LAT1 and LAT2 were produced, respectively.
A shuttle vector DNA (LAT1: pcDNA3.1(+) -hLAT1, LAT2: pcDNA3.1(+) -hLAT2; expression vector pcDNA3.1 (+) was produced by Invitrogen Corp.) having ampicillin and neomycin resistance markers and having full-length cDNA of human LAT1 or LAT2 inserted under a promoter of CMV (cytomegalovirus) was constructed. This vector was transfected into the HEK293 cells by a method using Lipofectamine (registered trademark) 2000 (Invitrogen Corp.) according to the manufacturer's instructions. Thereafter, stably expressing cell clones of transgene were selected by a limiting dilution method in the presence of 0.9 mg/mL of Geneticin (registered trademark), and among the obtained cell clones, cell clones having a high uptake of [^14C]L-leucine and maintaining stable expression even after 10 passages were obtained. These cells were used for evaluating affinity and selectivity for LAT1 and LAT2.
1-1. It has been confirmed that LAT1 is responsible for L-leucine uptake in the absence of sodium ions in the human-LAT1 stably expressing HEK293 cell line. The human-LAT1 stably expressing HEK293 cell line was seeded in a 24-well plate at 1×10^5 Cell/Well, and the [^14C]L-leucine uptake inhibition test using the compound was performed after 48 hours. After the medium was removed and the cells were washed with Hank's balanced salt solution (Na^+-free HBSS) not containing sodium ions, the cells were cultured in Na^+-free HBSS for 10 minutes. Thereafter, 1 μM of [^14C]L-leucine was taken up in Na^+-free HBSS in the presence of a test compound (0.1, 1.0, 10, 0 μM in each case), which is a racemic form, for 1 minute, and then the cells were washed three times with ice-cooled Na^+-free HBSS. To the well, 500 μL of 1 M NaOH was added, and after 30 minutes, the cells were lysed, and the cell lysate was collected. The amount of [^14C]L-leucine in the cell lysate was determined using a liquid scintillator. The amount of protein in the cell lysate was measured using BCA Assay Kit (Thermofisher Scientific), and the uptake amount of [^14C]L-leucine per 1 mg of protein in the cell per minute was calculated.
The degree of LAT1 inhibition of the compound obtained in the present invention was compared with BCH (BCH, 2-aminobicyclo-(2,2,1)-heptane-2-carboxylic acid), which is an existing LAT1 inhibitor. In the [^14C]L-leucine uptake inhibition test described above, the degrees of inhibition of [^14C]L-leucine uptake inhibition using the compound (racemic form) obtained in Examples and BCH (0.1, 1.0, 10, 0 μM for both) were compared. […] In the table, a test compound having a higher inhibitory effect than BCH is denoted by A, a test compound having the same inhibitory effect as BCH is denoted by B, and a test compound having a lower inhibitory effect than BCH is denoted by C.

Assay [2] deals with Mouse colorectal cancer-derived CT26 cells. Briefly: Cell proliferation inhibitory effect using mouse colorectal cancer cells (CCK-8 assay). Particulars: 72 hours compound treatment, read-out: Evaluation of IC50 (proliferation inhibition rate of 50%). Type of assay: cell-based. The procedure: Mouse colorectal cancer-derived CT26 cells were adjusted to […], seeded in a 96-well plate at 1000 cells/well, and cultured in a 10% fetal bovine serum-added RPMI 1640 medium at 5% CO2 and 37° C. The culture medium was changed 24 hours after the start of the culture, and the medium containing the compound of Example was replaced to examine the action of the compound on cell proliferation. As the compound, a concentration of 0.01, 0.03, 0.1, 0.3, 1, 3, 10, or 30 μM was used. As a control, the cells were cultured in a medium containing no compound. The number of cells was evaluated by CCK-8 assay (Cell Counting Kit-8, DOJINDO LABORATORIES) 72 hours after the start of the compound treatment, and the compound concentration (IC50 value) giving a proliferation inhibition rate of 50% as compared with the control was calculated.
(Formazan colour is commonly taken as a measure of viable cells.)

SMILES strings stand for the structures.

Sequence of human LAT1 (Q01650 whole entry): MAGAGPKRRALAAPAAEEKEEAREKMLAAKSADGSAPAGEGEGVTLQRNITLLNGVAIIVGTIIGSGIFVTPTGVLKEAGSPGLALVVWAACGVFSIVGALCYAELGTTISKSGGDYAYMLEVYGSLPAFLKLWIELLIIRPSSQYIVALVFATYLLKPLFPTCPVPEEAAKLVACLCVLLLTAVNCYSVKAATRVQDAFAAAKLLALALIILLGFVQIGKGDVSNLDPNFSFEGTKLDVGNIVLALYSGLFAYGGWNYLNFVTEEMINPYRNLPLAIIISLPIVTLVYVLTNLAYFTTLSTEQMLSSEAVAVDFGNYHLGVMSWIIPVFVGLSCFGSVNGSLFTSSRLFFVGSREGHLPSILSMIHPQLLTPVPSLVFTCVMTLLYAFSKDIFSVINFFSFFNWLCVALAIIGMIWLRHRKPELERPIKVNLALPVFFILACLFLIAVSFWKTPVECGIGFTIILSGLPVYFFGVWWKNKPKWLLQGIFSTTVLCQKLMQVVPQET
Sequence of human LAT1 (P08195 102-630 partner): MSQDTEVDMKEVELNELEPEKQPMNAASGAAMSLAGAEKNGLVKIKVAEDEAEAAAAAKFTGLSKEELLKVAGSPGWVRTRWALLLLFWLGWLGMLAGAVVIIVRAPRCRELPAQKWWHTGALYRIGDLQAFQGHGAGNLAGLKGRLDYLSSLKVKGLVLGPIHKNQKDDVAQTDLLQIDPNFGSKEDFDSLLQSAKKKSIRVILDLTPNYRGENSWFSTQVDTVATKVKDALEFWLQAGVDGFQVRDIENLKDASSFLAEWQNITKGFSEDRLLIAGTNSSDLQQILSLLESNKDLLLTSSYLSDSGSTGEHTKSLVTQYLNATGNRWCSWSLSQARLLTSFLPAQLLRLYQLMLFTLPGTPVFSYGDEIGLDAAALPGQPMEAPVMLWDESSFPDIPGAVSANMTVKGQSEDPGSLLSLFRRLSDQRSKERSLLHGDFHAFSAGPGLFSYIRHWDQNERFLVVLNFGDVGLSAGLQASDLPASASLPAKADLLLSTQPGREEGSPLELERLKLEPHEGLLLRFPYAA

As to `NC1(C(=O)O)CC2CCC1C2` (centres unmarked) [BCH, 2-aminobicyclo-(2,2,1)-heptane-2-carboxylic acid, reference compound], in assay [1] (0.1 to 10 μM), the “[14C]L-leucine uptake inhibition via LAT1 (in words)” value is “weak”.
Consider `Cl.NC1(C(=O)O)CCc2ccc(Oc3cccc(-c4ccccc4)c3)cc2C1` (centres unmarked) [Example 1-2, 7-([1,1′-biphenyl]-3-yloxy)-2-carboxy-1,2,3,4-tetrahydronaphthalene-2-aminium chloride], for which the “Assay Data: degree of [14C]L-leucine uptake inhibition compared with BCH” value in assay [1] was “A”.
`Cl.NC1(C(=O)O)CCc2ccc(Oc3ccc4occc4c3)cc2C1` (centres unmarked) [Example 1-3, 7-(benzofuran-5-yloxy)-2-carboxy-1,2,3,4-tetrahydronaphthalene-2-aminium chloride]: the “Assay Data: degree of [14C]L-leucine uptake inhibition compared with BCH” value in assay [1] is “A”.
Consider `Cl.NC1(C(=O)O)CCc2ccc(Oc3cccc4ccccc34)cc2C1` (centres unmarked) [Example 1-4, 2-carboxy-7-(naphthalene-1-yloxy)-1,2,3,4-tetrahydronaphthalene-2-aminium chloride], for which the IC50 in assay [2] is not above 0.9 µM. Moreover, the “Assay Data: degree of [14C]L-leucine uptake inhibition compared with BCH” value in assay [1] was “A”. Besides, the “LAT1 inhibitory effect, compounds singled out (in words)” value in assay [1] (same test as Table 1) is reported as “particularly remarkable effects”.
With `COc1ccc2ccc(Oc3ccc4c(c3)CC(N)(C(=O)O)CC4)cc2c1.Cl` (centres unmarked) [Example 1-5, 2-carboxy-7-((7-methoxynaphthalene-2-yl)oxy)-1,2,3,4-tetrahydronaphthalene-2-aminium chloride], the “Assay Data: degree of [14C]L-leucine uptake inhibition compared with BCH” value in assay [1] was “A”.
With `CN(C)c1ccc2cc(Oc3ccc4c(c3)CC(N)(C(=O)O)CC4)ccc2c1` (centres unmarked) [Example 1-6, 2-amino-7-((6-(dimethylamino)naphthalene-2-yl)oxy)-1,2,3,4-tetrahydronaphthalene-2-carboxylic acid], the “Assay Data: degree of [14C]L-leucine uptake inhibition compared with BCH” value in assay [1] is listed as “A”.
On to `CN(C)c1ccc2ccc(Oc3ccc4c(c3)CC(N)(C(=O)O)CC4)cc2c1` (centres unmarked) [Example 1-7, 2-amino-7-((7-(dimethylamino)naphthalene-2-yl)oxy)-1,2,3,4-tetrahydronaphthalene-2-carboxylic acid], for which, in assay [1], the “Assay Data: degree of [14C]L-leucine uptake inhibition compared with BCH” value is reported as “A”.
The same measure, in the same setting: for `NC1(C(=O)O)CCc2ccc(Oc3ccc4ncccc4c3)cc2C1` (centres unmarked) [Example 1-8, 2-amino-7-(quinoline-6-yloxy)-1,2,3,4-tetrahydronaphthalene-2-carboxylic acid] the value was “A”.
Same read-out and setting: for `NC1(C(=O)O)CCc2ccc(Oc3cccc(-c4ccccn4)c3)cc2C1` (centres unmarked) [Example 1-9, 2-amino-7-(3-(pyridine-2-yl)phenoxy)-1,2,3,4-tetrahydronaphthalene-2-carboxylic acid] the value was “A”.
Same read-out and setting: in the case of `Cl.NC1(C(=O)O)CCc2ccc(Oc3cccc(-c4ccc(Cl)cc4)c3)cc2C1` (centres unmarked) [Example 1-10, 2-carboxy-7-((4′-chloro-[1,1′-biphenyl]-3-yl)oxy)-1,2,3,4-tetrahydronaphthalene-2-aminium chloride] it was “A”; in that of `Cl.NC1(C(=O)O)CCc2ccc(Oc3cccc(-c4cccc(Cl)c4)c3)cc2C1` (centres unmarked) [Example 1-11, 2-carboxy-7-((3′-chloro-[1,1′-biphenyl]-3-yl)oxy)-1,2,3,4-tetrahydronaphthalene-2-aminium chloride], “A”.
Regarding `Cl.NC1(C(=O)O)CCc2ccc(Oc3ccc(-c4ccccc4)cc3)cc2C1` (centres unmarked) [Example 1-12, 7-([1,1′-biphenyl]-4-yloxy)-2-carboxy-1,2,3,4-tetrahydronaphthalene-2-aminium chloride], the “Assay Data: degree of [14C]L-leucine uptake inhibition compared with BCH” value in assay [1] is given as “A”.
Take `Cl.NC1(C(=O)O)CCc2ccc(Oc3cccc(-c4ccc5ccccc5c4)c3)cc2C1` (centres unmarked) [Example 1-13, 2-carboxy-7-(3-(naphthalene-2-yl)phenoxy)-1,2,3,4-tetrahydronaphthalene-2-aminium chloride]: the “Assay Data: degree of [14C]L-leucine uptake inhibition compared with BCH” value in assay [1] was “A”.
Consider `Cl.NC1(C(=O)O)CCc2ccc(Oc3ccccc3-c3ccccc3)cc2C1` (centres unmarked) [Example 1-16, 7-([1,1′-biphenyl]-2-yloxy)-2-carboxy-1,2,3,4-tetrahydronaphthalene-2-aminium chloride], for which the IC50 in assay [2] is not above 0.9 µM. Further, the “Assay Data: degree of [14C]L-leucine uptake inhibition compared with BCH” value in assay [1] is given as “A”.
On the same counts, the results for `Cl.Cl.NC1(C(=O)O)CCc2ccc(Oc3ccccc3-c3ccccn3)cc2C1` (centres unmarked) [Example 1-32, 2-(2-((7-ammonio-7-carboxy-5,6,7,8-tetrahydronaphthalen-2-yl)oxy)phenyl) pyridin-1-ium chloride] are 0.9 to 5 µM and “A”.
Consider `COc1cccc(-c2ccccc2Oc2ccc3c(c2)CC(N)(C(=O)O)CC3)c1.Cl` (centres unmarked) [Example 1-39, 2-carboxy-7-((3′-methoxy-[1,1′-biphenyl]-2-yl)oxy)-1,2,3,4-tetrahydronaphthalene-2-aminium chloride], for which, in assay [2], the IC50 is not above 0.9 µM. In addition, the “Assay Data: degree of [14C]L-leucine uptake inhibition compared with BCH” value in assay [1] is recorded as “A”.
On the same counts, the results for `CCc1cccc(-c2ccccc2Oc2ccc3c(c2)CC(N)(C(=O)O)CC3)c1.Cl` (centres unmarked) [Example 1-47, 2-carboxy-7-((3′-ethyl-[1,1′-biphenyl]-2-yl)oxy)-1,2,3,4-tetrahydronaphthalene-2-aminium chloride] are not above 0.9 µM and “A”.
On to `Cl.NC1(C(=O)O)CCc2ccc(Oc3ccccc3-c3ccc(F)c(F)c3)cc2C1` (centres unmarked) [Example 1-56, 2-carboxy-7-((3′,4′-Difluoro-[1,1′-Biphenyl]-2-yl)oxy)-1,2,3,4-tetrahydronaphthalene-2-aminium chloride], for which the IC50 in assay [2] was not above 0.9 µM. For the same compound, the “Assay Data: degree of [14C]L-leucine uptake inhibition compared with BCH” value in assay [1] was “A”.
On the same counts, the results for `COc1cccc2cccc(Oc3ccc4c(c3)CC(N)(C(=O)O)CC4)c12.Cl` (centres unmarked) [Example 1-60, 2-carboxy-7-((8-methoxynaphthalen-1-yl)oxy)-1,2,3,4-tetrahydronaphthalen-2-aminium chloride] are not above 0.9 µM and “A”.
On the same counts, the results for `Cl.NC1(C(=O)O)CCc2ccc(Oc3cccc4cccc(-c5ccccc5)c34)cc2C1` (centres unmarked) [Example 1-61, 2-carboxy-7-((8-phenylnaphthalen-1-yl)oxy)-1,2,3,4-tetrahydronaphthalen-2-aminium chloride] are not above 0.9 µM and “A”.
In the case of `NC1(C(=O)O)CCc2ccc(Oc3ccc([N+](=O)[O-])cc3)cc2C1` (centres unmarked) [Example 1-68, 2-carboxy-7-(4-nitrophenoxy)-1,2,3,4-tetrahydronaphthalene-2-aminium chloride], in assay [2], the IC50 fell in the range of 0.9 to 5 µM.
Take `Cl.NC1(C(=O)O)CCc2cc(Oc3ccc4ccccc4c3)ccc2C1` (centres unmarked) [Example 2-1, 2-carboxy-6-(naphthalene-2-yloxy)-1,2,3,4-tetrahydronaphthalene-2-aminium chloride]: the “Assay Data: degree of [14C]L-leucine uptake inhibition compared with BCH” value in assay [1] is “A”.
The same measure, in the same setting: for `NC1(C(=O)O)CCc2cc(Oc3ccc(-c4cccnc4)cc3)ccc2C1` (centres unmarked) [Example 2-2, 3-(4-((6-ammonio-6-carboxy-5,6,7,8-tetrahydronaphthalene-2-yl)oxy)phenyl) pyridine-1-ium chloride] the value was “B”.

(Values after patent US20260035339A1, “TETRAHYDRONAPHTHALENE DERIVATIVE” (ATRANSEN PHARMA LTD., priority 2022, published 2026).)
